From ChEMBL document CHEMBL1201862, “PubChem BioAssay data set” (2004) come the findings set out here.

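In this assay, cells in 96-well plates receive the compound at five concentrations for 48 hours. Endpoints are linearly interpolated between the surrounding concentrations. Here, GI50 denotes the concentration required for 50% inhibition of growth.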 Activity calls are given as the source filed them. No stated cut-off is given here; in the data, active = GI50 up to about 1.1 µM and inactive = higher. *1 amine or outer side, *2 acyl side, *3 side chain or, on linkers, in order; H or OH if unused. Where a SMILES comes first, the peptide text is derived from it. Bridges are numbered along the chain shown (N, C = ends). Roman numbers before positions name the chains, in order. [ ]: non-standard residue; d: D form. Actinocin(1to9) = Cc1c2oc3c(C)ccc(C(=O)[*:2])c3nc-2c(C(=O)[*:1])c(N)c1=O; NMeV = CN[CH](C(=O)O)C(C)C; Sar = CNCC(=O)O

Among the test systems are BT-549; CCRF-CEM; HCT-15; HOP-62; Hs-578T; MCF7; MDA-N; MOLT-4; Malme-3M; NCI-H226; NCI-H23; NCI-H460; NCI/ADR-RES; PC-3; RXF 393; SF-539; SK-MEL-2; SK-MEL-5; UACC-62; M19-MEL.
What all share (test): NCI-60 cell line screen, 48 h

Take `Nc1nc(N)nc(CCCc2nc(N)nc(N)n2)n1`: the GI50 in the experiment on BT-549 is > 100 µM (inactive); with CCRF-CEM it was > 100 µM (inactive); in the experiment on HCT-15 it was above 100 µM; in the experiment with HOP-62 it was > 100 µM (inactive); in the experiment with Hs-578T, > 100 µM (inactive); in the experiment on MCF7 it was > 100 µM (inactive). Besides, the GI50 in the experiment with MDA-N, with MOLT-4, with Malme-3M, in the experiment on NCI-H226, with NCI-H23 and in the experiment with NCI-H460 was > 100 µM (inactive) in each case. Besides, the GI50 with NCI/ADR-RES, in the experiment with PC-3, with RXF 393, with SF-539, in the experiment on SK-MEL-2 and in the experiment on SK-MEL-5 was > 100 µM (inactive) each time. Further, the GI50 with UACC-62 was > 100 µM (inactive).
Take `CCCC(=O)O[C@H]1C=C2C[C@@]34SS[C@]5(CC6=C[C@H](OC(C)=O)[C@@H]7O[C@@H]7[C@H]6N5C3=O)C(=O)N4[C@@H]2[C@H]2O[C@H]21`: the GI50 in the experiment on BT-549 was 0.021 µM (active); in the experiment on CCRF-CEM it was 0.0116 µM (active); with HCT-15, 0.0224 µM; in the experiment on HOP-62, 0.01 µM (active); in the experiment on Hs-578T it was 0.0203 µM (active); with MCF7, 0.0132 µM (active). Also, the GI50 was 0.00817 µM (active) in the experiment on MDA-N; 0.00904 µM (active) in the experiment on MOLT-4; 0.02 µM (active) with Malme-3M; 0.0766 µM (active) in the experiment on NCI-H226; 0.0241 µM (active) with NCI-H23; 0.0218 µM (active) in the experiment on NCI-H460. Besides, the GI50 in the experiment on NCI/ADR-RES is 0.0128 µM (active); in the experiment on PC-3, 0.0199 µM (active); with RXF 393, 0.0205 µM (active); in the experiment on SF-539 it was 0.0194 µM (active); with SK-MEL-2, 0.0552 µM (active); in the experiment on SK-MEL-5, 0.12 µM (active). Also, in the experiment with UACC-62, the GI50 was 0.0225 µM (active).
For `NC(=S)N/N=C/C(O[C@@H](/C=N/NC(N)=S)CO)n1cnc2c(N)ncnc21` (stereo partly drawn), the GI50 in the experiment on CCRF-CEM was 37.2 µM (inactive); with HCT-15, above 42.3 µM; in the experiment on HOP-62, > 100 µM (inactive); with M19-MEL, 97.1 µM (inactive); with MOLT-4 it was 50.7 µM (inactive); with Malme-3M it was > 100 µM (inactive). Further, the GI50 with NCI-H226 is > 100 µM (inactive); in the experiment with NCI-H23, > 100 µM (inactive); in the experiment with NCI-H460, > 80.5 µM (inactive); in the experiment with RXF 393, > 100 µM (inactive); with SF-539, > 100 µM (inactive); with SK-MEL-5, 44.6 µM (inactive). Also, the GI50 in the experiment with UACC-62 is > 81.7 µM (inactive).
Regarding `Nc1nc(Cl)c(N)c(NCC2(CO)CCC(OCc3ccccc3)C2)n1` (stereo not drawn), the GI50 in the experiment on BT-549 is 61.9 µM (inactive); with CCRF-CEM it was > 100 µM (inactive); in the experiment on HCT-15, 61.9 µM; in the experiment with HOP-62, > 100 µM (inactive); with Hs-578T, > 100 µM (inactive); in the experiment on MCF7, 47.8 µM (inactive). The GI50 in the experiment with MDA-N is > 100 µM (inactive); in the experiment with MOLT-4 it was 31.7 µM (inactive); with Malme-3M, 39.5 µM (inactive); with NCI-H226 it was 0.433 µM (active); with NCI-H23, > 100 µM (inactive); in the experiment with NCI-H460, > 100 µM (inactive). In addition, the GI50 is 13.5 µM (inactive) with NCI/ADR-RES; > 100 µM (inactive) in the experiment on PC-3; 8.85 µM (inactive) in the experiment on RXF 393; > 100 µM (inactive) in the experiment with SF-539; 84.1 µM (inactive) in the experiment on SK-MEL-2; 0.305 µM (active) in the experiment with SK-MEL-5. Further, in the experiment with UACC-62, the GI50 is > 100 µM (inactive).
Consider `COc1ccc(C(=O)O)c(Cc2cccc3ccccc23)c1`, for which the GI50 in the experiment on CCRF-CEM was > 100 µM (inactive); in the experiment on HCT-15, above 100 µM; in the experiment on HOP-62, > 100 µM (inactive); in the experiment on M19-MEL, > 100 µM (inactive); with MOLT-4, > 100 µM (inactive); with Malme-3M, > 100 µM (inactive). The GI50 with NCI-H226, in the experiment with NCI-H23, with NCI-H460, in the experiment with RXF 393, in the experiment on SK-MEL-2 and in the experiment with SK-MEL-5 was > 100 µM (inactive) in each case. Moreover, the GI50 with UACC-62 is 85.9 µM (inactive).
For the molecule `C#CCN(Cc1ccc2nc(-c3ccccc3)c(Cl)nc2c1)c1ccc(Cl)c(Cl)c1`, the GI50 in the experiment on CCRF-CEM was > 100 µM (inactive); with HCT-15, above 100 µM; with HOP-62, > 100 µM (inactive); with M19-MEL, > 100 µM (inactive); with MOLT-4, > 100 µM (inactive); in the experiment with Malme-3M it was > 100 µM (inactive). Besides, the GI50 in the experiment with NCI-H23, in the experiment with NCI-H460, in the experiment with SF-539, in the experiment with SK-MEL-2, with SK-MEL-5 and with UACC-62 was > 100 µM (inactive) in each case.
Take `O=C(NC1C(=O)NNC1c1cccc([N+](=O)[O-])c1)c1ccccc1` (stereo not drawn): the GI50 in the experiment on CCRF-CEM, in the experiment on HOP-62, in the experiment with M19-MEL, in the experiment with MOLT-4, in the experiment with Malme-3M and with NCI-H226 was > 100 µM (inactive) throughout. Moreover, the GI50 in the experiment on NCI-H23, with NCI-H460, with RXF 393, with SK-MEL-2, in the experiment with SK-MEL-5 and with UACC-62 was > 100 µM (inactive) each time.
In the case of `O=C(CC(=O)c1cccc2ccccc12)C(=O)Nc1ccc(Cl)cc1`, the GI50 in the experiment with CCRF-CEM is > 100 µM (inactive); with HCT-15, above 100 µM; in the experiment with HOP-62, > 100 µM (inactive); with M19-MEL, > 100 µM (inactive); with MOLT-4, > 100 µM (inactive); in the experiment with Malme-3M it was > 100 µM (inactive). Moreover, the GI50 in the experiment with NCI-H226, in the experiment on NCI-H23, with NCI-H460, with SF-539, with SK-MEL-5 and in the experiment with UACC-62 was > 100 µM (inactive) each time.
As for `NC(=O)c1cn(C2OC(CO)C(O)C2O)c(=O)[nH]c1=O` (stereo not drawn), the GI50 with CCRF-CEM was > 100 µM (inactive); in the experiment with HCT-15, above 100 µM; with HOP-62, > 100 µM (inactive); in the experiment with M19-MEL it was > 100 µM (inactive); in the experiment with MOLT-4, > 100 µM (inactive); in the experiment with NCI-H226, > 100 µM (inactive). The GI50 in the experiment with NCI-H23, with NCI-H460, with SF-539, with SK-MEL-2, with SK-MEL-5 and with UACC-62 was > 100 µM (inactive) in each case.
Regarding `CC(=O)Oc1c2c(c(OC(C)=O)c3c1n(C(C)=O)c1ccccc1n3C(C)=O)n(C(C)=O)c1ccccc1n2C(C)=O`, the GI50 with CCRF-CEM was 2.5 µM (inactive); with HCT-15, 3.27 µM; in the experiment on HOP-62, 8.17 µM (inactive); with M19-MEL, 1.95 µM (inactive); in the experiment with MOLT-4 it was 2.3 µM (inactive); in the experiment on Malme-3M, 2.38 µM (inactive). Further, the GI50 in the experiment with NCI-H23 is 8.24 µM (inactive); with NCI-H460 it was 3.68 µM (inactive); with RXF 393 it was 8.38 µM (inactive); in the experiment with SF-539 it was 13.4 µM (inactive); with SK-MEL-2, 5.18 µM (inactive); in the experiment with SK-MEL-5 it was 7.76 µM (inactive). The GI50 in the experiment with UACC-62 was 8.73 µM (inactive).
On to `CCCCCCCCCCCCCCCC(=O)N(CCCCCCCCCCC(=O)O)CC(O)C(O)C(OC1OC(CO)C(O)C(O)C1O)C(O)CO` (stereo not drawn), for which the GI50 with BT-549 was 25.4 µM (inactive); in the experiment on CCRF-CEM, 26.5 µM (inactive); in the experiment with HCT-15, 41.2 µM; in the experiment on HOP-62, 23.5 µM (inactive); with Hs-578T it was 40.5 µM (inactive); with MCF7, 53.6 µM (inactive). For the same molecule, the GI50 is 34.7 µM (inactive) in the experiment on MDA-N; 28.4 µM (inactive) with MOLT-4; 19.5 µM (inactive) in the experiment on Malme-3M; > 100 µM (inactive) with NCI-H226; 40.9 µM (inactive) in the experiment with NCI-H23; > 100 µM (inactive) in the experiment with NCI-H460. Moreover, the GI50 in the experiment with NCI/ADR-RES is 25.7 µM (inactive); in the experiment on PC-3 it was 37.8 µM (inactive); with RXF 393, 48.1 µM (inactive); in the experiment on SF-539, 21.3 µM (inactive); in the experiment on SK-MEL-2, 19 µM (inactive); with SK-MEL-5 it was 33.5 µM (inactive). The GI50 in the experiment on UACC-62 is 18.9 µM (inactive).
Regarding `COc1cc(C2c3cc4c(cc3C(NCC(O)CO)C3COC(=O)[C@H]23)OCO4)cc(OC)c1OC` (stereo partly drawn), the GI50 in the experiment on CCRF-CEM is 0.407 µM (active); in the experiment on HCT-15 it was 2.45 µM; in the experiment on HOP-62, 0.221 µM (active); in the experiment on M19-MEL it was 0.927 µM (active); in the experiment on MOLT-4 it was 0.272 µM (active); with Malme-3M, > 100 µM (inactive). Moreover, the GI50 with NCI-H226 was 0.289 µM (active); with NCI-H23 it was 0.267 µM (active); in the experiment with NCI-H460, 0.435 µM (active); in the experiment with SF-539, 0.146 µM (active); in the experiment with UACC-62, 0.0973 µM (active).
In the case of `COc1ccc(CC2NC(=O)C(NC(=O)c3c4nc5c(C(=O)NC6C(=O)NC(Cc7ccc(OC)cc7)C(=O)N7CCCC7C(=O)N(C)CC(=O)N(C)C(C(C)C)C(=O)OC6C)ccc(C)c5oc-4c(C)c(=O)c3N)C(C)OC(=O)C(C(C)C)N(C)C(=O)CN(C)C(=O)C3CCCN3C2=O)cc1` (stereo not drawn) (I: TY(Me)P[Sar][NMeV] / II: TY(Me)P[Sar][NMeV]; ester I:1-I:C, II:1-II:C; linker I:N-II:N via Actinocin(1to9); configuration not given here), the GI50 in the experiment on BT-549 is 0.01 µM (active); in the experiment with CCRF-CEM, < 0.001 µM (active); in the experiment with HCT-15, 0.0579 µM; in the experiment on HOP-62, 0.00681 µM (active); in the experiment on Hs-578T, 0.022 µM (active); in the experiment with MCF7, < 0.001 µM (active). Further, the GI50 with MDA-N is < 0.001 µM (active); in the experiment with MOLT-4 it was < 0.001 µM (active); in the experiment with Malme-3M, < 0.001 µM (active); with NCI-H226, 0.0135 µM (active); in the experiment with NCI-H23, 0.00147 µM (active); in the experiment on NCI-H460, < 0.001 µM (active). In addition, the GI50 was 0.48 µM (active) in the experiment with NCI/ADR-RES; < 0.001 µM (active) in the experiment with PC-3; 0.01 µM (active) in the experiment on RXF 393; < 0.001 µM (active) in the experiment on SF-539; 0.015 µM (active) with SK-MEL-2; < 0.001 µM (active) in the experiment with SK-MEL-5. In addition, the GI50 with UACC-62 is < 0.001 µM (active).
